Legend:
Assay in all cases: Kinase selectivity profile assay
Format in all cases: biochemical
PKCepsilon = biological target: T1, PKCepsilon (Homo sapiens, UniProt Q02156); conditions: 500 nM; relative to DMSO; read-out: Residual enzymatic activity
T1 construct: purchased Reaction Biology Corporation
Procedure, shortened: (§1)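 Radiometric kinase assay run by a standard protocol. Unbound phosphate was removed by washing filters in phosphoric acid, and product radioactivity gave percent remaining kinase activity versus DMSO vehicle reactions. Run in duplicate.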

IRAK1 = biological target: T2, IRAK1 (Homo sapiens, UniProt P51617); conditions: 500 nM; relative to DMSO; read-out: Residual enzymatic activity
T2 construct: purchased Reaction Biology Corporation
Procedure, shortened: as §1

ROCK1 = biological target: T3, ROCK1 (Homo sapiens, UniProt Q13464); conditions: 500 nM; relative to DMSO; read-out: Residual enzymatic activity
T3 construct: purchased Reaction Biology Corporation
Procedure, shortened: as §1

VRK1 = biological target: T4, VRK1 (Homo sapiens, UniProt Q99986); conditions: 500 nM; relative to DMSO; read-out: Residual enzymatic activity
T4 construct: purchased Reaction Biology Corporation
Procedure, shortened: as §1

PIM1 = biological target: T5, PIM1 (Homo sapiens, UniProt P11309); conditions: 500 nM; relative to DMSO; read-out: Residual enzymatic activity
T5 construct: purchased Reaction Biology Corporation
T5 sequence (P11309 whole entry): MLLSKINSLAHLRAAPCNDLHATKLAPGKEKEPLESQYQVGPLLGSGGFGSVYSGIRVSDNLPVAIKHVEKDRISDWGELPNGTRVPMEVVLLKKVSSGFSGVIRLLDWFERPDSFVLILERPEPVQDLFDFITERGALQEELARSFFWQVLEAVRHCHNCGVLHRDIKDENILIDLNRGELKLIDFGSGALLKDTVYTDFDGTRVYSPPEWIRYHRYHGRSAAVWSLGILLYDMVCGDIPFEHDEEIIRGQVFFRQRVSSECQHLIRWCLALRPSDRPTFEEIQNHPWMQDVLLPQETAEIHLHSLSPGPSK
Procedure, shortened: as §1

ERK2/MAPK1 = biological target: T6, ERK2/MAPK1 (Homo sapiens, UniProt P28482); conditions: 500 nM; relative to DMSO; read-out: Residual enzymatic activity
T6 construct: purchased Reaction Biology Corporation
Procedure, shortened: as §1

IRAK4 = biological target: T7, IRAK4 (Homo sapiens, UniProt Q9NWZ3); conditions: 500 nM; relative to DMSO; read-out: Residual enzymatic activity
T7 construct: purchased Reaction Biology Corporation
Procedure, shortened: as §1

TRKB = biological target: T8, TRKB (Homo sapiens, UniProt Q16620); conditions: 500 nM; relative to DMSO; read-out: Residual enzymatic activity
T8 construct: purchased Reaction Biology Corporation
Procedure, shortened: as §1

MEKK3 = biological target: T9, MEKK3 (Homo sapiens, UniProt Q99759); conditions: 500 nM; relative to DMSO; read-out: Residual enzymatic activity
T9 construct: purchased Reaction Biology Corporation
Procedure, shortened: as §1

ERK7/MAPK15 = biological target: T10, ERK7/MAPK15 (Homo sapiens, UniProt Q8TD08); conditions: read-out: Residual enzymatic activity
T10 construct: purchased Reaction Biology Corporation
Procedure, shortened: as §1

TTBK2 = biological target: T11, TTBK2 (Homo sapiens, UniProt Q6IQ55); conditions: 500 nM; relative to DMSO; read-out: Residual enzymatic activity
T11 construct: purchased Reaction Biology Corporation
Procedure, shortened: as §1

PKA = biological target: T12, PKA (Homo sapiens, UniProt P17612); conditions: 500 nM; relative to DMSO; read-out: Residual enzymatic activity
T12 construct: purchased Reaction Biology Corporation
Procedure, shortened: as §1

PKCa = biological target: T13, PKCa (Homo sapiens, UniProt P17252); conditions: 500 nM; relative to DMSO; read-out: Residual enzymatic activity
T13 construct: purchased Reaction Biology Corporation
Procedure, shortened: as §1

GRK6 = biological target: T14, GRK6 (Homo sapiens, UniProt P43250); conditions: 500 nM; relative to DMSO; read-out: Residual enzymatic activity
T14 construct: purchased Reaction Biology Corporation
Procedure, shortened: as §1

CDK2/Cyclin A1 = biological target: T15, CDK2/Cyclin A1 (Homo sapiens, UniProt P24941); conditions: 500 nM; relative to DMSO; read-out: Residual enzymatic activity
T15 construct: purchased Reaction Biology Corporation
Procedure, shortened: as §1

GRK5 = biological target: T16, GRK5 (Homo sapiens, UniProt P34947); conditions: 500 nM; relative to DMSO; read-out: Residual enzymatic activity
T16 construct: purchased Reaction Biology Corporation
T16 sequence (P34947 whole entry): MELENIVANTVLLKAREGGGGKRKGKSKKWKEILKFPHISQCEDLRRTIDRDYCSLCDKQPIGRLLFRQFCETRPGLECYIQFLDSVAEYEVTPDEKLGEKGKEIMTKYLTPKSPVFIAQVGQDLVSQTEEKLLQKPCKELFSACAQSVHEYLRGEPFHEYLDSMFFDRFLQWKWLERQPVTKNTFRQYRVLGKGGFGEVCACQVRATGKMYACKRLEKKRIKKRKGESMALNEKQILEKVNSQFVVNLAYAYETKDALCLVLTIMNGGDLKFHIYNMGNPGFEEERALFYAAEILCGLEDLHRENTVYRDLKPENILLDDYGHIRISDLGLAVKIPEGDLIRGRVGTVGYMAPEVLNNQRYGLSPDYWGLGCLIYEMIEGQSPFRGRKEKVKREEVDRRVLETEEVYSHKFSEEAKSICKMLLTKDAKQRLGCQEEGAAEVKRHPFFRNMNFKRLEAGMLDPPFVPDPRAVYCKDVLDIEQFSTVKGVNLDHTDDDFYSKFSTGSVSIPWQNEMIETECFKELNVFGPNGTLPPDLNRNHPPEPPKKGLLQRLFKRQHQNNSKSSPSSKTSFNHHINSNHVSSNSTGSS
Procedure, shortened: as §1

HIPK3 = biological target: T17, HIPK3 (Homo sapiens, UniProt Q9H422); conditions: 500 nM; relative to DMSO; read-out: Residual enzymatic activity
T17 construct: purchased Reaction Biology Corporation
Procedure, shortened: as §1

PRKX = biological target: T18, PRKX (Homo sapiens, UniProt P51817); conditions: 500 nM; relative to DMSO; read-out: Residual enzymatic activity
T18 construct: purchased Reaction Biology Corporation
T18 sequence (P51817 whole entry): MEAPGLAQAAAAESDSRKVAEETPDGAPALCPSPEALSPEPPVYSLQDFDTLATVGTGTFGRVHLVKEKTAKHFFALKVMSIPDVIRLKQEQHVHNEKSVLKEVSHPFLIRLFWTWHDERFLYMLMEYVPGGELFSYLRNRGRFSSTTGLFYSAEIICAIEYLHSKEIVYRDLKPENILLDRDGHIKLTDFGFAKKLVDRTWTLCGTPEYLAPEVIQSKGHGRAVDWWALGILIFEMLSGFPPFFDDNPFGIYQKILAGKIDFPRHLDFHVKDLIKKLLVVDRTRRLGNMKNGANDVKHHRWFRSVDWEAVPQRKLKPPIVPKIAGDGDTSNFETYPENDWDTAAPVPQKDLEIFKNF
Procedure, shortened: as §1

AKT2 = biological target: T19, AKT2 (Homo sapiens, UniProt P31751); conditions: 500 nM; relative to DMSO; read-out: Residual enzymatic activity
T19 construct: purchased Reaction Biology Corporation
Procedure, shortened: as §1

DLK/MAP3K12 = biological target: T20, DLK/MAP3K12 (Homo sapiens, UniProt Q12852); conditions: 500 nM; relative to DMSO; read-out: Residual enzymatic activity
T20 construct: purchased Reaction Biology Corporation
Procedure, shortened: as §1

MAPKAPK2 = biological target: T21, MAPKAPK2 (Homo sapiens, UniProt P49137); conditions: 500 nM; relative to DMSO; read-out: Residual enzymatic activity
T21 construct: purchased Reaction Biology Corporation
Procedure, shortened: as §1

HGK/MAP4K4 = biological target: T22, HGK/MAP4K4 (Homo sapiens, UniProt O95819); conditions: 500 nM; relative to DMSO; read-out: Residual enzymatic activity
T22 construct: purchased Reaction Biology Corporation
Procedure, shortened: as §1

FGFR4 = biological target: T23, FGFR4 (Homo sapiens, UniProt P22455); conditions: 500 nM; relative to DMSO; read-out: Residual enzymatic activity
T23 construct: purchased Reaction Biology Corporation
T23 sequence (P22455 22-802): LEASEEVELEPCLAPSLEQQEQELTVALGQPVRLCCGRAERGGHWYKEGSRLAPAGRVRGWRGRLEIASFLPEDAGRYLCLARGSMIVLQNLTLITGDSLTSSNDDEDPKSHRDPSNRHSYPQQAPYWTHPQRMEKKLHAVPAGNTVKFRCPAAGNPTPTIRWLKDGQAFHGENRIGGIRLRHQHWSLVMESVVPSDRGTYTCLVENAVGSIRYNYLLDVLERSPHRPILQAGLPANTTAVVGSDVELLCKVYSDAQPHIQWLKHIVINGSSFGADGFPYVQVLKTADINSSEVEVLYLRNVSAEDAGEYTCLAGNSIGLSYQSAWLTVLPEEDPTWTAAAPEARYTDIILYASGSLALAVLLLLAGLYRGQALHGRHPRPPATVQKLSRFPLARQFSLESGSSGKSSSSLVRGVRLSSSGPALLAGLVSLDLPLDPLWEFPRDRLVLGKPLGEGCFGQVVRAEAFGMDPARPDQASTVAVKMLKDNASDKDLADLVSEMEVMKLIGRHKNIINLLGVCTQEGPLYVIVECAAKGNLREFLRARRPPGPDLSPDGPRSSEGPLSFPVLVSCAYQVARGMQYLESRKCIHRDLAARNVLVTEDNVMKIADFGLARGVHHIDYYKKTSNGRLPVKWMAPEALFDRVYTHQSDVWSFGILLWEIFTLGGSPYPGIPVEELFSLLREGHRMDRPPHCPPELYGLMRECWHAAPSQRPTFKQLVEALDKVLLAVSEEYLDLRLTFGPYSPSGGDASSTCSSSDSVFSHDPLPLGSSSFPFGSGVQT
Procedure, shortened: as §1

VRK2 = biological target: T24, VRK2 (Homo sapiens, UniProt Q86Y07); conditions: read-out: Residual enzymatic activity
T24 construct: purchased Reaction Biology Corporation
T24 sequence (Q86Y07 whole entry): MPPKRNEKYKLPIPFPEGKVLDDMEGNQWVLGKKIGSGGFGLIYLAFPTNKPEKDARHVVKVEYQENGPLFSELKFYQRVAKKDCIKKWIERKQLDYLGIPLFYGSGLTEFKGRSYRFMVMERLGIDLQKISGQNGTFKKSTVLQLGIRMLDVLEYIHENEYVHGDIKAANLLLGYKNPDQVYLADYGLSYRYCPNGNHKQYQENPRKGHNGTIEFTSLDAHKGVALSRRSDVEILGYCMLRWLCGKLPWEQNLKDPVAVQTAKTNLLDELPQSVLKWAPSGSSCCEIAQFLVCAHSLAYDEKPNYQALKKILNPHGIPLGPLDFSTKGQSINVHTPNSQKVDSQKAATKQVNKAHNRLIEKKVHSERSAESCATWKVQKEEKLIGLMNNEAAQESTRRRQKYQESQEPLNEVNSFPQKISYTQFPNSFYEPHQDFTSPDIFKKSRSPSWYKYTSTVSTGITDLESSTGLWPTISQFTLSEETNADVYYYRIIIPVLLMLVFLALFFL
Procedure, shortened: as §1

LRRK2 = biological target: T25, LRRK2 (Homo sapiens, UniProt Q5S007); conditions: 500 nM; relative to DMSO; read-out: Residual enzymatic activity
T25 construct: purchased Reaction Biology Corporation (assay service)
T25 sequence (Q5S007 whole entry): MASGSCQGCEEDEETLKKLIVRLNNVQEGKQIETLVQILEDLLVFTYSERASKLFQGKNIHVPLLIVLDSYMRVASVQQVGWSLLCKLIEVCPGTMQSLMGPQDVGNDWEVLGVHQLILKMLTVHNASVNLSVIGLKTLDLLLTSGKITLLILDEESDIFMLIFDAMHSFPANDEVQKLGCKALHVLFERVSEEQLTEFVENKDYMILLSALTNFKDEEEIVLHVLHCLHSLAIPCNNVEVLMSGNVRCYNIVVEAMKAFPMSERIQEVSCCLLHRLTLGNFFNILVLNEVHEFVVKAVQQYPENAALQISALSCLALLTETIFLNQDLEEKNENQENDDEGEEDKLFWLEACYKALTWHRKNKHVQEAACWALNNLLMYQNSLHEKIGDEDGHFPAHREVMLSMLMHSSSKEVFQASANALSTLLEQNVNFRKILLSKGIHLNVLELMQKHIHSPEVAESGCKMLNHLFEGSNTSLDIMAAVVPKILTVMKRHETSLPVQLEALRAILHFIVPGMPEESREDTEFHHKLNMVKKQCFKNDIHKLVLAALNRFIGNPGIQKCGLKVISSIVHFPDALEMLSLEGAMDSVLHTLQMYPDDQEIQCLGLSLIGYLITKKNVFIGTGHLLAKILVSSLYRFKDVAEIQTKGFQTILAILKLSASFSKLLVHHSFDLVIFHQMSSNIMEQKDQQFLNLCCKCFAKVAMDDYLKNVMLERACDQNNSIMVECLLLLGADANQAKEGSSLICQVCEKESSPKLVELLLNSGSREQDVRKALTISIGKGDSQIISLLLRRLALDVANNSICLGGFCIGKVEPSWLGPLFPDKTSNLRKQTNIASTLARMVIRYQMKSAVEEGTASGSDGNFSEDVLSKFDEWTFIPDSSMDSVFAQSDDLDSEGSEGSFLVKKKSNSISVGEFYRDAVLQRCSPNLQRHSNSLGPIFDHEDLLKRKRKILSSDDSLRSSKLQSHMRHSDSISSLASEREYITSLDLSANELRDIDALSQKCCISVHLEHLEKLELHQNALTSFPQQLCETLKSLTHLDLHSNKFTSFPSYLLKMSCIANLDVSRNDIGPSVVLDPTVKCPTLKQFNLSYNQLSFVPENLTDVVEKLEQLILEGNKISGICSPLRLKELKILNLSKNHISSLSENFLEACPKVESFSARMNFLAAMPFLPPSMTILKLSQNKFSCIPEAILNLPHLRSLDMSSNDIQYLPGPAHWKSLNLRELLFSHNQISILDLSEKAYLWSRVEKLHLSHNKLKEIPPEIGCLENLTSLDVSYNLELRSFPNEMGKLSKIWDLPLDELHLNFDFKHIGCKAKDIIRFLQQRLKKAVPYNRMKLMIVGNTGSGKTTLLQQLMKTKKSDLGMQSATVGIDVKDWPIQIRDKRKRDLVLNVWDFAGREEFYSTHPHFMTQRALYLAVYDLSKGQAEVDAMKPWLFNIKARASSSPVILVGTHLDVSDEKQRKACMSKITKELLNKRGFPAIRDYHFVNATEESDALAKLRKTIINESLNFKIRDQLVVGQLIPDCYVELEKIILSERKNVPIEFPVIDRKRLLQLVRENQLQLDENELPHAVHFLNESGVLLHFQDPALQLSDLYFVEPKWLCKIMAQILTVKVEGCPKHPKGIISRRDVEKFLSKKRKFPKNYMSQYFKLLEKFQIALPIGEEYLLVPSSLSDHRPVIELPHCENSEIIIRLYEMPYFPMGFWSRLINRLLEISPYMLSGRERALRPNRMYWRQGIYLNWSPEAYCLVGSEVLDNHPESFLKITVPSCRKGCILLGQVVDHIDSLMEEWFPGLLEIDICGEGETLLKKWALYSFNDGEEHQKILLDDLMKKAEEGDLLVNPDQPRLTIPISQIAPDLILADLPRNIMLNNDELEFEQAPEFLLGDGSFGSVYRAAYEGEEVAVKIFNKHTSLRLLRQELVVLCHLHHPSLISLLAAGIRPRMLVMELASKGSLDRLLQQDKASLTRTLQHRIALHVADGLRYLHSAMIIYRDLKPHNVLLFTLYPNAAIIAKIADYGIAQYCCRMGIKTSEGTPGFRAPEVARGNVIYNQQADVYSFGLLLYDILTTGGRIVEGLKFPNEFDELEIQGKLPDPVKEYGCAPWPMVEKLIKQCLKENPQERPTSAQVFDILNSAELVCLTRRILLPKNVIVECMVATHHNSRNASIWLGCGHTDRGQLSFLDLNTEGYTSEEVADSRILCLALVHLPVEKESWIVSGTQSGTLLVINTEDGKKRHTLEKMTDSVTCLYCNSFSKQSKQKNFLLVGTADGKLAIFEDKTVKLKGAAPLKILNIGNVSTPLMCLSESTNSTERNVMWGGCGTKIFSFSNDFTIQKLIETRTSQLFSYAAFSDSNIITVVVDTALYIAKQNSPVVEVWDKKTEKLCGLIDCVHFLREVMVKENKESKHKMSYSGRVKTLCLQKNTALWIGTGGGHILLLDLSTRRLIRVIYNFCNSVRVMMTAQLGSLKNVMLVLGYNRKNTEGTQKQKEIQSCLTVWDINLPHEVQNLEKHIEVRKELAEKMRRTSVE
Procedure, shortened: as §1

DYRK1B = biological target: T26, DYRK1B (Homo sapiens, UniProt Q9Y463); conditions: 500 nM; relative to DMSO; read-out: Residual enzymatic activity
T26 construct: purchased Reaction Biology Corporation
Procedure, shortened: as §1

SNARK/NUAK2 = biological target: T27, SNARK/NUAK2 (Homo sapiens, UniProt Q9H093); conditions: 500 nM; relative to DMSO; read-out: Residual enzymatic activity
T27 construct: purchased Reaction Biology Corporation
Procedure, shortened: as §1

DDR2 = biological target: T28, DDR2 (Homo sapiens, UniProt Q16832); conditions: 500 nM; relative to DMSO; read-out: Residual enzymatic activity
T28 construct: purchased Reaction Biology Corporation
Procedure, shortened: as §1

TSSK2 = biological target: T29, TSSK2 (Homo sapiens, UniProt Q96PF2); conditions: 500 nM; relative to DMSO; read-out: Residual enzymatic activity
T29 construct: purchased Reaction Biology Corporation
Procedure, shortened: as §1

MAPKAPK3 = biological target: T30, MAPKAPK3 (Homo sapiens, UniProt Q16644); conditions: 500 nM; relative to DMSO; read-out: Residual enzymatic activity
T30 construct: purchased Reaction Biology Corporation
Procedure, shortened: as §1

PKD2/PRKD2 = biological target: T31, PKD2/PRKD2 (Homo sapiens, UniProt Q9BZL6); conditions: 500 nM; relative to DMSO; read-out: Residual enzymatic activity
T31 construct: purchased Reaction Biology Corporation
Procedure, shortened: as §1

c-MER = biological target: T32, c-MER (Homo sapiens, UniProt Q12866); conditions: 500 nM; relative to DMSO; read-out: Residual enzymatic activity
T32 construct: purchased Reaction Biology Corporation
Procedure, shortened: as §1

DCAMKL1 = biological target: T33, DCAMKL1 (Homo sapiens, UniProt O15075); conditions: 500 nM; relative to DMSO; read-out: Residual enzymatic activity
T33 construct: purchased Reaction Biology Corporation
Procedure, shortened: as §1

MSSK1/STK23 = biological target: T34, MSSK1/STK23 (Homo sapiens, UniProt Q9UPE1); conditions: 500 nM; relative to DMSO; read-out: Residual enzymatic activity
T34 construct: purchased Reaction Biology Corporation
Procedure, shortened: as §1

NLK = biological target: T35, NLK (Homo sapiens, UniProt Q9UBE8); conditions: 500 nM; relative to DMSO; read-out: Residual enzymatic activity
T35 construct: purchased Reaction Biology Corporation
Procedure, shortened: as §1

RIPK3 = biological target: T36, RIPK3 (Homo sapiens, UniProt Q9Y572); conditions: 500 nM; relative to DMSO; read-out: Residual enzymatic activity
T36 construct: purchased Reaction Biology Corporation
Procedure, shortened: as §1

MEK1 = biological target: T37, MEK1 (Homo sapiens, UniProt Q02750); conditions: 500 nM; relative to DMSO; read-out: Residual enzymatic activity
T37 construct: purchased Reaction Biology Corporation
Procedure, shortened: as §1

PKCg = biological target: T38, PKCg (Homo sapiens, UniProt P05129); conditions: 500 nM; relative to DMSO; read-out: Residual enzymatic activity
T38 construct: purchased Reaction Biology Corporation
Procedure, shortened: as §1

RIPK5 = biological target: T39, RIPK5 (Homo sapiens, UniProt Q6XUX3); conditions: 500 nM; relative to DMSO; read-out: Residual enzymatic activity
T39 construct: purchased Reaction Biology Corporation
Procedure, shortened: as §1

CK1g3 = biological target: T40, CK1g3 (Homo sapiens, UniProt Q9Y6M4); conditions: 500 nM; relative to DMSO; read-out: Residual enzymatic activity
T40 construct: purchased Reaction Biology Corporation
Procedure, shortened: as §1

## COc1cc(Nc2ncc(F)c(Nc3ccc4c(n3)NC(=O)C(C)(C)O4)n2)cc(OC)c1OC [R406, reference compound]
PKCepsilon
  remaining activity at 0.5 µM: 95%
IRAK1
  remaining activity at 0.5 µM: 13.5%
ROCK1
  remaining activity at 0.5 µM: 87%
VRK1
  remaining activity at 0.5 µM: 98.8%
PIM1
  remaining activity at 0.5 µM: 99.2%
ERK2/MAPK1
  remaining activity at 0.5 µM: 88%
IRAK4
  remaining activity at 0.5 µM: 41.9%
TRKB
  remaining activity at 0.5 µM: 28%
MEKK3
  remaining activity at 0.5 µM: 76.1%
ERK7/MAPK15
  remaining activity at 0.5 µM: 77.1%
TTBK2
  remaining activity at 0.5 µM: 95.4%
PKA
  remaining activity at 0.5 µM: 50.8%
PKCa
  remaining activity at 0.5 µM: 58.3%
GRK6
  remaining activity at 0.5 µM: 92.7%
CDK2/Cyclin A1
  remaining activity at 0.5 µM: 59.5%
GRK5
  remaining activity at 0.5 µM: 96.4%
HIPK3
  remaining activity at 0.5 µM: 96.4%
PRKX
  remaining activity at 0.5 µM: 104%
AKT2
  remaining activity at 0.5 µM: 110%
DLK/MAP3K12
  remaining activity at 0.5 µM: 70.6%
MAPKAPK2
  remaining activity at 0.5 µM: 106%
HGK/MAP4K4
  remaining activity at 0.5 µM: 75.3%
FGFR4
  remaining activity at 0.5 µM: 58%
VRK2
  remaining activity at 0.5 µM: 131%
LRRK2
  remaining activity at 0.5 µM: 5.5%
DYRK1B
  remaining activity at 0.5 µM: 72.5%
SNARK/NUAK2
  remaining activity at 0.5 µM: 59.7%
DDR2
  remaining activity at 0.5 µM: 31.5%
TSSK2
  remaining activity at 0.5 µM: 95.2%
MAPKAPK3
  remaining activity at 0.5 µM: 102%
PKD2/PRKD2
  remaining activity at 0.5 µM: 75.2%
c-MER
  remaining activity at 0.5 µM: 73.9%
DCAMKL1
  remaining activity at 0.5 µM: 84.2%
MSSK1/STK23
  remaining activity at 0.5 µM: 107%
NLK
  remaining activity at 0.5 µM: 107%
RIPK3
  remaining activity at 0.5 µM: 107%
MEK1
  remaining activity at 0.5 µM: 87.2%
PKCg
  remaining activity at 0.5 µM: 63.6%
RIPK5
  remaining activity at 0.5 µM: 100%
CK1g3
  remaining activity at 0.5 µM: 79.6%

Source: paper PMC8632988, “Inhibition of SYK and cSrc kinases can protect bone and cartilage in preclinical models of osteoarthritis and rheumatoid arthritis” (Scientific Reports, 2021)
